{"source": "patent US9782368B2", "about": "“Use of N,N-bis-2-mercaptoethyl isophthalamide” (EMERAMED LIMITED, priority 2014, dated 2017)", "key": {"[1]": {"assay": "Ascorbate depletion assay, 9,10-PQ-sponsored oxidation, recycling of DHA", "settings": "9,10-PQ model, 200 μM added at 60 minutes", "experimental": "The kinetics of ascorbate oxidation, sponsored by both 1 μM 9,10-PQ and 2 μM copper sulphate (CuSO4), was examined using the ascorbate depletion assay (Kelly et al, Res. Rep. Health Eff. Inst., 163, 3 (2011). 9,10-PQ was employed so that the action of NBMI could be examined in isolation of its chelation properties.\nAll experiments were performed in triplicate in UV 96 well flat-bottomed plates (Greiner bio-one) at a final volume of 200 μL. Exposures were initiated by the addition of 20 μL of a concentrated stock of ascorbate (2 mM) into each well containing 160 μL of Chelex-100 resin treated water (containing 10% DMSO), plus either 10 μL of water, CuSO4 stock solution at 4 mM or 9,10-PQ stock solution at 2 mM, and 10 μL of NMBI (4 mM and […]).\nAll solutions were prepared in Chelex-100 resin treated water (containing 10% DMSO). This yielded final concentrations in the wells of […], 2 μM CuSO4, or 1 μM 9,10-PQ and between 10 and 200 μM of NBMI.\nImmediately prior to the addition of the ascorbate to each assay well, the plate was pre-incubated for 10 minutes at 37° C. in a plate reader (Spectra Max 190). During the exposure, the plate was maintained at this temperature. After addition of ascorbate, the concentration remaining in each well was monitored every 2 minutes for a period of two hours by measuring the absorbance at 265 nm. The ascorbate concentration was determined with reference to a standard curve, with the rate of ascorbate oxidation determined by performing a linear regression through the initial part of a concentration verses time plot using Microcal Software Limited's OriginLab (version 5.0). This was performed for each of the triplicates and the rate of ascorbate depletion was finally expressed as mean mol s 1×10^−9 depletion of ascorbate±standard deviation.\nFor the experiments in which the impact of adding NBMI to the ascorbate was measured, CuSO4 and 9,10-PQ depletion assays were examined later in the time course. The plates were ran with 190 μL only for the first 55-60 minutes, after which they were removed from the plate reader and 10 μL of either the NMBI or the known reducing agent, DTT stock solution, or water was added to each well. The plate was then returned to the plate reader and the absorbance at 265 nm monitored for a further 60 minutes.\nThe immediate increase in the measured ascorbate concentrations was determined and is referred to as the ‘jump’, as a measure of immediate recycling capacity. The sustained ‘increase’ over the remaining 60 minutes of the incubation was also determined."}, "COPD": {"system": "COPD", "assay": "Treatment of patient with COPD", "assay_type": "in vivo, human", "experimental": "A retired person residing in the USA, who had been medically diagnosed with COPD several years earlier, regularly experienced coughing fits two to four times in any 24 hour period, beginning at any hour of the day or night and lasting from about 40 to 75 minutes. As a consequence of these coughing fits, the patient's breathing was shallow, their throat irritated, their voice was raspy, their energy levels very low and their quality of life very poor."}, "[2]": {"settings": "by the eighth day, 100 mg capsule three times daily"}}, "data": [{"smiles": "O=C(NCCS)c1cccc(C(=O)NCCS)c1", "note": "[NBMI, N,N-bis-2-mercaptoethyl isophthalamide]", "values": [{"measurement": "immediate rebound increase in ascorbate", "setting": "[1]", "result": 42.8, "unit": "µM"}, {"measurement": "rate of ascorbate oxidation after addition", "setting": "[1]", "result": "reduced relative to the first 60 minute period"}, {"measurement": "symptoms of COPD", "setting": "COPD; 100 mg capsule three times daily for eight days, one patient", "result": "marked improvement in symptoms"}, {"measurement": "breathing", "setting": "COPD; [2]", "result": "significantly improved breathing"}, {"measurement": "coughing fits", "setting": "COPD; [2]", "result": "no coughing fits"}]}]}
